Experimental data published in ChEMBL document CHEMBL2385001, “Synthesis and evaluation of 7-chloro-4-(piperazin-1-yl)quinoline-sulfonamide as hybrid antiprotozoal agents” (Bioorg Med Chem, 2013).
pIC50: −log10 of the molar value.

Legend:
[1] = Cytotoxicity against human HT-29 cells assessed as cell viability at 100 uM after 48 hrs by MTT assay relative to control; assay type: cell-based; conditions: read-out: Activity
[2] = Inhibition of beta-haematin formation after 24 hrs by microtiter plate assay; assay type: functional
[3] = Hemolytic activity in human RBC at 100 uM after 48 hrs relative to control; assay type: ADME, cell-based, Erythrocyte; conditions: red blood cells, read-out: Activity
[4] = tested on: Plasmodium falciparum; test: Antimalarial activity against chloroquine-resistant Plasmodium falciparum FCR-3 assessed as growth inhibition after 24 hrs by [3H]-hypoxanthine incorporation assay; assay type: functional; conditions: FCR-3/Gambia
[5] = tested on: Entamoeba histolytica; test: Antiamoebic activity against trophozoite stage of Entamoeba histolytica HM-1:IMSS assessed as growth inhibition after 72 hrs by microdilution method; assay type: functional, organism-based
[6] = Safety index, ratio of cytotoxicity against human HT-29 cells to antiamoebic activity against trophozoite stage of Entamoeba histolytica HM-1:IMSS; assay type: toxicity, cell-based; conditions: read-out: Selectivity Index
[7] = Safety index, ratio of cytotoxicity against human HT-29 cells to antimalarial activity against chloroquine-resistant Plasmodium falciparum FCR-3; assay type: toxicity, cell-based; conditions: read-out: Selectivity Index
[8] = Cytotoxicity against human HT-29 cells assessed as growth inhibition at 100 uM after 48 hrs by MTT assay relative to control; assay type: cell-based; conditions: read-out: GI

| Structure (SMILES) | viability at 48 h, 100 µM [1] [%] | pIC50 [2] | hemolysis at 48 h, 100 µM [3] [%] | pIC50 [4] | pIC50 [5] | selectivity ratio [6] | selectivity ratio [7] | inhibition at 48 h, 100 µM [8] [%] |
| --- | --- | --- | --- | --- | --- | --- | --- | --- |
| CC(C)(C)c1ccc(S(=O)(=O)N2CCN(c3ccnc4cc(Cl)ccc34)CC2)cc1 | 67.7 | 4.14 | 1.36 | 5.22 | 5.54 | 24 |  |  |
| O=S(=O)(c1ccc(Cl)cc1)N1CCN(c2ccnc3cc(Cl)ccc23)CC1 | 61.3 | 4.46 | 1.4 | 5.49 | 4.59 |  |  |  |
| Cc1ccc(S(=O)(=O)N2CCN(c3ccnc4cc(Cl)ccc34)CC2)cc1 | 64.5 | 5.05 | 0.62 | 5.37 | 5.34 | 14 |  |  |
| CC(=O)Nc1ccc(S(=O)(=O)N2CCN(c3ccnc4cc(Cl)ccc34)CC2)cc1 | 96.8 | 5.05 | 0.83 | 5.94 | 5.02 |  | 84 | 17 |
| COc1ccc(S(=O)(=O)N2CCN(c3ccnc4cc(Cl)ccc34)CC2)cc1 | 68.1 | 5.04 | 6.03 | 5.48 | 5.08 |  |  |  |
| O=[N+]([O-])c1ccccc1S(=O)(=O)N1CCN(c2ccnc3cc(Cl)ccc23)CC1 | 86.1 | 4.20 | 0.01 | 5.71 | < 4.00 |  | 44 | 17 |
| CCCS(=O)(=O)N1CCN(c2ccnc3cc(Cl)ccc23)CC1 | 67.1 | 5.75 | 0.82 | 5.76 | < 4.00 |  | 39 | 17 |
| CS(=O)(=O)N1CCN(c2ccnc3cc(Cl)ccc23)CC1 | 73 | 4.87 | 0.01 | 5.07 | < 4.00 |  |  |  |
| O=S(=O)(c1cc(Cl)ccc1Cl)N1CCN(c2ccnc3cc(Cl)ccc23)CC1 | 63.4 | 4.33 | 2.06 | 5.59 | 4.52 |  |  |  |
| C=C[C@H]1CN2CC[C@H]1C[C@H]2[C@H](O)c1ccnc2ccc(OC)cc12 [QUININE] |  | 4.66 | 2.14 | 6.77 |  |  |  |  |
| CC[C@@]1(O)C(=O)OCc2c1cc1n(c2=O)Cc2cc3ccccc3nc2-1 [CAMPTOTHECIN] | 48.3 |  |  |  |  |  |  | 52 |
| O=S(=O)(c1ccc2ccccc2c1)N1CCN(c2ccnc3cc(Cl)ccc23)CC1 | 59.8 | 4.15 | 0.97 | 5.51 | 4.63 |  |  |  |
| O=S(=O)(c1ccccc1)N1CCN(c2ccnc3cc(Cl)ccc23)CC1 | 55.1 | 4.74 | 0.01 | 5.40 | 4.48 |  |  | 45 |
